Legend:
[1] = rabbit, in vivo
Experimental: After 8 weeks of treatment, the rabbits were anesthetized with injections of ketamine 75 mg/kg in the femoral muscle and sacrificed. Blood samples were collected from the heart of each rabbit to determine the blood analysis consisting of: complete blood count (CBC), Chemistry-7 and 24, (including Liver and renal function tests), lipid profiles (including Total cholesterol, HDL, LDL, VLDL, and triglycerides), coagulation factors consisting of; prothrombin time (PT), partial thromboplastin time (PPT), and immune-globulin-E.
All laboratory blood analysis were performed on rabbits of all 7 groups, The results were tested using student t-test and Microsoft Excel-7 programs.

[2] = examination of internal organs of bromelain-treated rabbits; design: species or system white rabbits; settings: rabbit, in vivo
Experimental: One half of each organ was frozen and the other half was fixed with 10% neutral buffered formalin for 24 hours. Then the fixed organs were washed […] stepwise dehydrated with 70%, 80%, 90%, 100% ethanol and then embedded in paraffin by using Shandon-Histocentre-2. The embedded organ blocks were sectioned in 4 µm thickness with a microtome (McBain, M 820, American Optical Co. USA) and stained with hematoxylin and eosin stain (H.E. stain). The stained specimens were made transparent with xylene, and mounted with permount on microslides.

tumor cell [3] = settings: in vitro; cited from earlier work
CD44 = settings: in vitro; cited from earlier work
TNFα, II-2 = settings: in vitro; cited from earlier work
tumor cell [4] = settings: in vitro; cited from earlier work; remark: listed apart in the source
tumor cells = settings: in vitro; cited from earlier work

Bromelain
GGTP [1]: 7+—1 | HDL [1]: 43.6+—16.5 mg/ | Hb [1]: 11.9+—1.9 gm/dl | SGOT [1]: 110.8+—30.7 u/l | SGPT [1]: 71.2+—3.8 u/l | TC (total cholesterol) [1]: 175.6+—36.8 mg/dl | TRG (triglycerides) [1]: 92.6+—38.8 mg/dl | WBC [1]: 7.3+—2.2 k/ul | laboratory blood tests, differences between groups [1]: no differences among or within each groups | internal organs, microscopic examination (H.E. stain) [2]: no pathological abnormalities or lesions

Stem bromelain [Bromelain F4]
tumor cell invasion through extracellular matrix, effect (tumor cell [3]): =

Ananain [Bromelain F9]
CD44 expression on metastatic cells, effect (CD44): ↓ | tumor cell invasion through extracellular matrix, effect (tumor cell [3]): = | secretion of TNFα, II-2, effect (TNFα, II-2): ↑ | tumor cell proliferation, effect (tumor cell [4]): ↓ | immunocytotoxicity of lymphocytes against tumor cells, effect (tumor cells): ↑
